Reference: PubChem BioAssay (NCI)
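Where inhibition never reached the appropriate level, the endpoint shown equals the highest concentration tested. Otherwise, values were interpolated linearly from a five-concentration, 48-hour dose response in 96-well plates. Abbreviation: GI50, concentration required for 50% inhibition of growth. TGI: total growth inhibition.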

Assays:
Experiment in all cases: NCI tumour cell line growth inhibition, 48 h
KM20L2 colon = test system: KM20L2 colon
LXFL 529 NSCLC = test system: LXFL 529 NSCLC
DMS 273 small cell lung = test system: DMS 273 small cell lung
SNB-78 CNS = test system: SNB-78 CNS
DLD-1 colon = test system: DLD-1 colon
XF 498 CNS = test system: XF 498 CNS
DMS 114 small cell lung = test system: DMS 114 small cell lung
MDA-N = test system: MDA-N
RXF-631 renal = test system: RXF-631 renal
SN12K1 renal = test system: SN12K1 renal
P388/ADR leukemia = test system: P388/ADR leukemia
P388 leukemia = test system: P388 leukemia

SMILES | TGI (KM20L2 colon) [µM] | TGI (LXFL 529 NSCLC) [µM] | TGI (DMS 273 small cell lung) [µM] | TGI (SNB-78 CNS) [µM] | TGI (DLD-1 colon) [µM] | TGI (XF 498 CNS) [µM] | TGI (DMS 114 small cell lung) [µM] | TGI (MDA-N) [µM] | other results
CCCCNC(=S)OCCC(C)CCCC(C)C (stereo unspecified) | > 100 | > 100 | > 100 | > 100 | > 100 | > 100 | > 100 | – | –
NC(Cc1c[nH]c2ccc([N+](=O)[O-])cc12)C(=O)O (stereo unspecified) | – | – | – | – | – | – | – | > 100 | –
CC(=O)Nc1cc2cc(NS(=O)(=O)c3ccc(Cl)c(Cl)c3)ccc2oc1=O | – | – | – | – | – | – | – | > 100 | –
COc1cc(/C=C(\NC(=O)c2ccccc2)c2nc3ncncc3[nH]2)cc(OC)c1OC | > 100 | > 100 | > 100 | > 100 | > 100 | > 100 | – | – | TGI (RXF-631 renal): > 100 µM
N#C/C(=C1\OC(=N)C(c2ccccc2)C1=O)c1ccccc1 (stereo unspecified) | > 100 | 36.3 | > 100 | > 100 | 39.1 | 46.2 | > 82.2 | – | –
O=C(CCC(=O)Nc1cccc(C(F)(F)F)c1)CC(=O)c1ccc2ccccc2c1 | > 100 | > 100 | > 100 | > 100 | > 100 | > 100 | > 100 | – | TGI (RXF-631 renal): > 100 µM
COc1cc([N+](=O)[O-])c(S(=O)(=O)O)cc1-n1nc(C(=O)Nc2ccccc2)n[n+]1-c1cc(S(=O)(=O)[O-])c([N+](=O)[O-])cc1OC | – | – | – | – | – | – | – | > 100 | –
Nc1nc2c(-c3ccc([N+](=O)[O-])cc3)nnn2c2ccccc12 | – | > 100 | > 100 | > 100 | > 100 | > 100 | – | – | –
NS(=O)(=O)c1ccc(NC(=O)C2C(=O)C(=O)N(c3ccc(S(N)(=O)=O)cc3)C2=O)cc1 (stereo unspecified) | > 100 | > 100 | > 100 | > 100 | > 100 | – | > 100 | – | TGI (RXF-631 renal): > 100 µM
CCOC(=O)c1[nH]c2cc(OC)c(OC)cc2c1CN(C)C | > 100 | – | – | > 100 | > 100 | – | > 100 | – | –
O=C1NC2(CCCCC2)C(=O)N1CCN(CCCl)CCCl | > 194 | – | > 223 | > 245 | > 250 | 39.6 | 248 | > 25 | TGI (SN12K1 renal): > 250 µM; TGI (P388/ADR leukemia): 234 µM; TGI (P388 leukemia): 189 µM
O=C(N=c1nc(NC(=O)c2ccccc2)ss1)c1ccccc1 | > 100 | – | 89.1 | > 100 | – | – | 90.3 | – | –
CC(=O)Nc1ccc(S(=O)(=O)N=S(C)C)cc1 | – | – | – | – | – | – | – | > 100 | –
CCCc1nc(Cl)c(Cl)c(Cl)n1 | – | – | – | – | – | – | – | > 100 | –
COc1ccc(O)cc1C(O)c1ccccc1 (stereo unspecified) | > 100 | > 100 | > 100 | > 100 | > 100 | > 100 | > 100 | – | –
OC1CCCC2CCC[N-]C12.OC1CCCC2CCC[N-]C12.[O]=[V][OH] (stereo unspecified) | – | – | – | – | – | – | – | > 100 | GI50 (MDA-N): 5.86 µM
COc1ccc2c(c1)CCc1cc(OC)ccc1/[N+]([O-])=[N+]\2[O-] | – | – | – | – | – | – | – | 29.8 | –
CC1C=CC(C(N)C(=O)O)O1 (stereo unspecified) | > 100 | > 100 | > 100 | > 100 | > 100 | > 100 | > 100 | – | –
CC(C)COC1Sc2ccccc2S1 | 36.2 | 49.3 | 43.1 | 65.1 | 35.1 | – | 39.1 | – | –
CCCCCCCCCCCCCCCC(=O)OCCOCCOCCOCCOCCOC(=O)CCCCCCCCCCCCCCC | > 100 | > 100 | > 100 | > 100 | > 100 | – | > 100 | – | TGI (RXF-631 renal): > 100 µM
O=C(Nc1ccc(Cl)cc1C(=O)O)c1ccc([N+](=O)[O-])cc1 | 48.3 | 48.7 | 67.1 | 67.2 | 30.9 | 90.1 | 36.8 | – | TGI (RXF-631 renal): > 100 µM
Cc1ccc(-c2nc(-c3nccc4ccccc34)oc2-c2ccccc2)cc1 | – | – | – | – | – | – | – | > 100 | –
O=C(Nc1ccccc1)OC1OC(COC(=O)c2ccccc2)C(OC(=O)c2ccccc2)C1OS(=O)(=O)c1ccc([N+](=O)[O-])cc1 (stereo unspecified) | – | – | – | – | – | – | – | > 100 | –
CC1=CP(=O)(c2ccccc2)C=C(C)C1=C(Cl)Cl (stereo unspecified) | 4.61 | 11.3 | 9.22 | 9.03 | 27.1 | 34.8 | 28.9 | – | –
COS(C)(=O)=O | – | – | – | – | – | – | – | > 2 | –
C[N+](C)(C)c1cc[c]([Sn]([c]2ccc([N+](C)(C)C)cc2)([c]2ccc([N+](C)(C)C)cc2)[c]2ccc([N+](C)(C)C)cc2)cc1 | > 100 | > 100 | > 100 | – | > 100 | > 100 | > 100 | – | GI50 (KM20L2 colon): > 100 µM; GI50 (LXFL 529 NSCLC): > 100 µM; GI50 (DMS 273 small cell lung): > 100 µM; GI50 (RXF-631 renal): > 100 µM; TGI (RXF-631 renal): > 100 µM; GI50 (DLD-1 colon): > 100 µM; GI50 (XF 498 CNS): > 100 µM; GI50 (DMS 114 small cell lung): > 100 µM
COc1cc2c(c(OC)c1OC)-c1ccc(SC)c(=O)cc1[C@@H](NC(=O)C(F)(F)F)CC2 | < 0.0115 | > 100 | > 100 | – | > 100 | 2.37 | – | < 0.01 | –
O=C1C=C2CCCC2C(C(=O)O)(C(=O)O)C1 (stereo unspecified) | – | > 100 | > 100 | > 100 | > 100 | > 100 | > 100 | – | TGI (RXF-631 renal): > 100 µM
COc1ccc(/C=C/C(=O)c2c(-c3ccccc3)nn(C)c(=O)c2N2CCOCC2)cc1 | > 100 | > 100 | > 100 | – | > 100 | 83.9 | > 100 | – | TGI (RXF-631 renal): > 100 µM
